# Test results as given in US20060293395A1, “Methods for treating a mammal before, during and after cardiac arrest” (priority 2004, published 2006).
# Legend:
# male domestic pigs = assay: Levosimendan on post-resuscitation myocardial function after beta-adrenergic blockade (propranolol); type: in vivo, pig; conditions: levosimendan added early postresuscitation after propranolol, in comparison with propranolol alone
# Method: Anesthesia was initiated by intramuscular injection of ketamine (20 mg/kg) and completed by ear vein injection of sodium pentobarbital (30 mg/kg). Additional doses of sodium pentobarbital (8 mg/kg) were injected to maintain anesthesia at intervals of one hour. A cuffed endotracheal tube was advanced into the trachea. Animals were mechanically ventilated with a volume-controlled ventilator (Model MA-1, Puritan-Bennett, Carlsbad, Calif.) with a tidal volume of 15 mL/kg, peak flow of 40 L/min, and FiO2 of 0.21. End-tidal PCO2 (ETCO2) was monitored with an infrared analyzer (Model 01R-7101A, Nihon Kohden Corp, Tokyo, Japan). Respiratory frequency was adjusted to maintain PETCO2 between 35 and 40 mm Hg.
# For the measurement of left ventricular functions, a 5.5/7.5 […] biplane with Doppler transesophageal echocardiographic transducer with 4-way flexure (Model 21363A, Hewlett-Packard Co., Medical Products Group, Andover, Mass.) was advanced from the incisor teeth into the esophagus for a distance of approximately 35 cm. For the measurement of aortic pressure, a fluid-filled catheter was advanced from the left femoral artery into the thoracic aorta. For the measurements of right atrial, pulmonary arterial pressures and blood temperature, a 7-French, pentalumen, thermodilution-tipped catheter was advanced from the left femoral vein and flow-directed into the pulmonary artery. A 7-French catheter was advanced from the left cephalic vein into the great cardiac vein for the measurement of great cardiac vein blood gases and lactate. For inducing VF, a 5-French pacing catheter (EP Technologies, Inc., Mountain View, Calif.) was advanced from the right cephalic vein into the right ventricle.
# The investigators were blinded to the randomization. Cardiac arrest was induced with 1 to 2 mA AC delivered to the endocardium of the right ventricle. Mechanical ventilation was discontinued after onset of VF. At the end of the 7-min interval of untreated VF, precordial compression was started with a pneumatic piston-driven chest compressor (Thumper, Model 1000, Michigan Instruments, Grand Rapids, Mich.). […] The compression force was adjusted to decrease the anterior-posterior diameter of the chest by 25%. After 5 min of precordial compression, defibrillation was attempted with a 150 J biphasic waveform shock delivered between the right infraclavicular area and the cardiac apex. If an organized cardiac rhythm with mean aortic pressure of more than 60 mm Hg persisted for an interval of 5 min or more, the animal was regarded as successfully resuscitated. All animals had restoration of spontaneous circulation (ROSC) after electrical defibrillation, and were then randomized to three treatment groups: (1) propranolol (0.1 mg/kg bolus at 6 min of VF); (2) propranolol plus levosimendan (at 10 min after post resuscitation, 20 μg/kg over 10 min followed by 0.4 μg/kg/min for 220 min); and (3) equal volumes of saline as placebo.
# Measurements were obtained over an interval of 4 hours following resuscitation. After 4 hours, animals were euthanized by intravenous injection of 150 mg kg^−1 pentobarbital. Autopsy was performed to document injuries to the bony thorax and the thoracic and abdominal viscera.
# Male Sprague-Dawley rats [1] = assay: Example 2: dobutamine vs levosimendan for post-resuscitation myocardial failure, 8 min untreated VF + 6 min precordial compression; type: in vivo, rat
# Method: The animals were anesthetized following intraperitoneal injection of 45 mg kg^−1 pentobarbital. […] No anesthetic agent was administrated during the 30 minute interval prior to inducing cardiac arrest.
# Pressures were measured with a high sensitivity pressure transducer (Model 42584-01; Abbott Critical Care System, North Chicago, Ill.). The optimally damped frequency response of the system was 22 Hz. […] Guided by pressure monitoring, the catheter was slowly withdrawn into the right atrium. Right atrial pressure was measured with reference to the mid-chest with another high sensitivity pressure transducer (Abbott model 42584-01). This catheter also served as an injection site for the thermal tracer. A 4 F polyethylene catheter (model C-PMS401J; Cook Critical Care, Bloomington, Ind.) was advanced through the right external jugular vein into the right atrium. A precurved guide wire supplied with the catheter was then advanced through the catheter into the right ventricle until an endocardial electrogram was observed. Another 23-gauge polyethylene catheter (PE 50) was advanced through the left femoral artery into the abdominal aorta for measurement of aortic pressure with the same Abbott high sensitivity transducer and also for sampling arterial blood. […] The thermocouple provided for measurements of blood temperature and thermodilution cardiac output. […] An additional PE 50 catheter was advanced into right femoral vein for drug infusion. EKG lead II was continuously recorded.
# Experimental Procedure: A total of 15 animals were investigated. The investigators were blinded to the intervention until immediately prior to inducing VF, at which time the principal investigator opened a sealed envelope for assignment to one of three groups: (1) levosimendan (2) dobutamine or (3) saline placebo. This allowed time for preparation of a fresh dilution of the selected drug. […] Current flow was continued for 3 minutes to prevent spontaneous defibrillation as previously described (Von Planta I, Weil MH. Cardiopulmonary resuscitation in the rat. J Appl Physiol. 1988;65(6):2641-2647). Ventilation was discontinued after onset of VF. Precordial compression was begun with a pneumatically driven mechanical chest compressor after 8 minutes of untreated VF and continued for 6 minutes. These methods have been extensively exercised and have been well-documented (see Von Plata I (supra)) and Sun SJ, Weil MH, Tang W, et al. Combined effects of buffer and adrenergic agent on postresuscitation myocardial function. J Pharm Exp Ther. 1999;291 :773-777). Coincident with the start of precordial compression, the animals were mechanically ventilated. Tidal volume was established at 6.5 ml per kg animal weight, a frequency of 100 min^−1, and on a FiO2 of 1.0.
# Male Sprague-Dawley rats [2] = assay: Example 1: post-resuscitation myocardial dysfunction after VF cardiac arrest, drug infusion for 240 min post-resuscitation
smiles,measurement,setting,value
C[C@@H]1CC(=O)NN=C1c1ccc(NN=C(C#N)C#N)cc1 [Levosimendan],EF,male domestic pigs,additional and significant increases
same,FAC,male domestic pigs,additional and significant increases
same,mean arterial pressure (MAP),Male Sprague-Dawley rats [1]; between the three groups,no significant differences
same,duration of survival,"Male Sprague-Dawley rats [1]; observed over 72 hours, least with saline placebo (FIG. 15)",maximal
same,left ventricular diastolic (filling) pressures,Male Sprague-Dawley rats [1]; post-resuscitation,significantly lesser increases
same,cardiac index,Male Sprague-Dawley rats [1]; post-resuscitation (FIG. 13),significant increases in cardiac index
same,dP/dt40,Male Sprague-Dawley rats [1]; vs saline placebo (FIG. 14),Significantly greater
same,−dP/dt,Male Sprague-Dawley rats [1]; vs saline placebo (FIG. 14),Significantly greater
same,arterial pressures,"Male Sprague-Dawley rats [2]; among the three groups, at PR10 and after administration of the drugs (FIG. 4)",No significant differences
same,cardiac index,Male Sprague-Dawley rats [2]; post-resuscitation (FIG. 6),comparable increases in cardiac index
same,contractility as reflected in the dP/dt40,Male Sprague-Dawley rats [2]; post-resuscitation (FIG. 9),consistently greater increases in contractility
same,stroke volume,"Male Sprague-Dawley rats [2]; post-resuscitation, initially (FIG. 7)",significantly greater stroke volumes
same,left ventricular diastolic (filling) pressures,Male Sprague-Dawley rats [2]; vs control and dobutamine-treated animals (FIG. 11),substantially lower and near normal
same,post-resuscitation survival,Male Sprague-Dawley rats [2]; vs dobutamine and placebo (FIG. 12),significantly longer post-resuscitation survival
same,systemic vascular (arterial) resistance,Male Sprague-Dawley rats [2]; vs placebo-treated controls (FIG. 8),Comparable and significant reductions
